Test results as given in US6558900B2, “Regulation of apoptosis and in vitro model for studies thereof” (Emory University, priority 1996, dated 2003).
Entries after “also recorded” stand apart in the source; their conditions may differ.

Tests used:
[1] = test system: CPP32; test: Assay for dATP-dependent activation of CPP32 protease (cleavage of in vitro translated 35S-labeled CPP32 in HeLa S-100); assay type: biochemical, hamster; details: 1 mM nucleotide, 30° C., 1 hr
Protocol: The samples were subjected to SDS-PAGE and transferred to a nitrocellulose filter. The filter was exposed to film for 16 hours at room temperature. In FIG. 2B, a 50 μl aliquot of HeLa S-100 (250 μg) was incubated with each aliquot of 6 μl hamster liver nuclei at 37° C. for 2 hr in the presence of 1 mM indicated nucleotide. The DNA was isolated, analyzed by 2% agarose gel electrophoresis and visualized by ethidium bromide staining.
To test the nucleotide specificity for activation of CPP32 and DNA fragmentation, HeLa cell S-100 was incubated with in vitro translated, ^35S-labeled CPP32 in the presence of 1 mM of various nucleotides (FIG. 2A).
A PCR fragment encoding amino acids 29-277 of hamster CPP32 [Wang et al. (1996) supra] was cloned into NdeI and BamHI sites of pET 15b vector (Novagen, Madison, Wis.). The resulting fusion protein of six histidines with hamster CPP32 (amino acids 29-277) was translated in a TNT T7 transcription/translation kit (Promega, Madison, Wis.) in the presence of ^35S-methionine according to the manufacturer's instructions. The translated protein was passed through a 1 ml nickel affirmity column (Qiagen, Chatsworth, Calif.) equilibrated with buffer A. After washing the column with 10 ml of buffer A, the translated CPP32 was eluted with buffer A containing 250 mM imidazole. Human SREBP-2 was translated in a TNT SP6 transcription/translation kit as described [Wang et al. (1995) [Hua et al. (1993) Proc. Natl. Acad. Sci. USA 90, 11603-11607]. Full length human PARP cDNA [Chemey et al. (1987) Proc. Natl. Acad. Sci. USA 84, 8370-8374] was cloned into SmaI and EcoRI sites of pBK-CMV vector (Stratagene, La Jolla, Calif.) and translated in a TNT T7 transcription/translation kit [Promega, Madison, Wis.]. The translated SREBP-2 and PARP (200 μl each) were purified by passing each translation mixture through a 10-ml Sephadex G-25 gel-filtration column equilibrated with buffer A. The translated proteins contained within the exclusion volume of the column were collected.
CPP32 was translated and purified as described above. Aliquot of 3 μl of the in vitro translated CPP32 was incubated with the indicated protein fraction, nucleotides, and 1 mM additional MgCl2 at 30° C. for 1 hour in a final volume of 20 μl of buffer A. At the end of the incubation, 7 μl of 4×SDS sample buffer was added to each reaction. After boiling for 3 min, each sample was subjected to a 15% SDS-polyacrylamide gel electrophoresis (SDS-PAGE). The gel was transferred to a nitrocellulose filter which was subsequently exposed to a Kodak X-OMAT AR X-ray film (Eastman Kodak, Rochester, N.Y.) for 16 hr at room temperature.

[2] = test system: CPP32; test: Apaf-2 activity: recombining with phosphocellulose flow through fraction (Apaf-1) and 35S-labeled CPP32; assay type: biochemical, human; details: one unit = cleavage of 1% of the input substrate in 60 min
Protocol: FIG. 3 illustrates fractionation and reconstitution of dATP-dependent activation of CPP32 by phosphocellulose chromatography. HeLa cell S-100 was subjected to phosphocellulose chromatography and the column flow through and bound material were collected as described in the Examples. Aliquots (10 μl) of HeLa S-100 (50 μg) (lanes 1 and 2), phosphocellulose flow through fraction (PC-FT) (lanes 3 and 4), phosphocellulose bound fraction (PC-B) (lanes 5 and 6), and the mixture of phosphocellulose flow through and bound material (lanes 7 and 8) were incubated with aliquots of 3 μl in vitro translated, ^35S-labeled CPP32 at 30° C. for 1 hr in the absence (lanes 1,3,5,7) or presence (lanes 2,4,6,8) of 1 mM dATP. The samples were subjected to SDS-PAGE, transferred to a nitrocellulose filter, and the filter was exposed to film for 16 hours at room temperature.
The Apaf-2 activity that bound to the phosphocellulose column was purified through the Mono S column as described in Example 7. […] In FIG. 4B, aliquots (30 μl) of the Mono-S fractions were subjected to 15% SDS-PAGE and the proteins were visualized by silver staining.
Aliquots of 0.2 μg of Apaf-2 purified through the Mono S column (lanes 1, 2), cytochrome c from bovine heart (lanes 3, 4), and rat liver (lanes 5, 6) were incubated with aliquots of 10 μl phosphocellulose flowthrough fraction and 3 μl in vitro translated, 35S-labeled CPP32 at 30° C. for 1 hr in a final volume of 20 μl buffer A in the absence (lanes 1,3,5) or presence of (lanes 2, 4, 6) 1 mM dATP. Samples were subjected to SDS-PAGE and transferred to a nitrocellulose filter which was then exposed to a film for 16 hr at room temperature.
To isolate the protein(s) required for the activation of CPP32, HeLa S-100 was loaded onto a phosphocellulose column, and the flow-through and bound fractions were collected. […] When the flowthrough and bound fractions were mixed, CPP32-activating activity was restored (lanes 7-8). […] The factor(s) that flow through the phosphocellulose column are designated apoptotic protease activating factor-1 (Apaf-1) and the factor that bound to the column is designated apoptotic protease activating factor-2 (Apaf-2). It is understood that “Apaf-1” may represent more than one protein or it may represent a combination of protein(s) and other factors.
Apaf-2 activity was assayed by recombining with Apaf-1 after purification by the following steps. First, the Apaf-2 fraction was subjected to 50% ammonium sulfate precipitation. All of the activity remained in the supernatant while most of the protein precipitated (Table I). The supernatant was loaded onto a phenyl-sepharose (hydrophobic interaction) column and the activity was eluted with 1 M ammonium sulfate. The eluate was passed through a gel filtration column; active fractions were subjected to sequential Mono Q (anion exchange) and Mono S (cation exchange) chromatography. The Apaf-2 activity flowed through the Mono Q column, and the flow through was directly loaded onto the Mono S column. Bound Apaf-2 activity was then eluted with a 100-300 mM NaCl linear salt gradient. The fractions from the Mono S column were collected and assayed. […] The active fractions were analyzed by SDS-PAGE (FIG. 4B). A protein of apparent molecular mass of 15 kDa was co-eluted with the activity. No other proteins were detected by silver staining in the active Apaf-2 fractions.
CPP32 was translated and purified as described above. […]

| Compound | cleavage of 35S-labeled CPP32 (nucleotide specificity) [1] | Specific Activity [2] [units/mg] | Total Activity [2] [unit] |
| --- | --- | --- | --- |
| Cc1cn([C@H]2C[C@H](O)[C@@H](COP(=O)(O)OP(=O)(O)OP(=O)(O)O)O2)c(=O)[nH]c1=O [dTTP] | did not replace dATP | – | – |
| Nc1ncnc2c1ncn2[C@@H]1O[C@H](COP(=O)(O)O)[C@@H](O)[C@H]1O [AMP] | did not replace dATP | – | – |
| Nc1ncnc2c1ncn2[C@@H]1O[C@H](CO)[C@@H](O)[C@H]1O [adenosine] | did not replace dATP | – | – |
| Nc1ccn([C@@H]2O[C@H](COP(=O)(O)OP(=O)(O)OP(=O)(O)O)[C@@H](O)[C@H]2O)c(=O)n1 [CTP] | did not replace dATP | – | – |
| Nc1ncnc2c1ncn2[C@H]1C[C@H](O)[C@@H](CO)O1 [deoxyadenosine] | did not replace dATP | – | – |
| Nc1nc2c(ncn2[C@H]2C[C@H](O)[C@@H](COP(=O)(O)OP(=O)(O)OP(=O)(O)O)O2)c(=O)[nH]1 [dGTP] | did not replace dATP | – | – |
| O=c1ccn([C@@H]2O[C@H](COP(=O)(O)OP(=O)(O)OP(=O)(O)O)[C@@H](O)[C@H]2O)c(=O)[nH]1 [UTP] | did not replace dATP | – | – |
| Nc1ncnc2c1ncn2[C@H]1C[C@H](O)[C@@H](COP(=O)(O)O)O1 [dAMP] | did not replace dATP | – | – |
| Mono Q/Mono-S: Apaf-2 purification step 6: Apaf-2 purified through the Mono S column | – | 263150 | 20000 |
| Nc1nc2c(ncn2[C@@H]2O[C@H](COP(=O)(O)OP(=O)(O)OP(=O)(O)O)[C@@H](O)[C@H]2O)c(=O)[nH]1 [GTP] | did not replace dATP | – | – |
| Nc1ncnc2c1ncn2[C@@H]1O[C@H](COP(=O)(O)OP(=O)(O)O)[C@@H](O)[C@H]1O [ADP] | did not replace dATP | – | – |
| Nc1ncnc2c1ncn2[C@H]1C[C@H](O)[C@@H](COP(=O)(O)OP(=O)(O)O)O1 [dADP] | Cleavage occurred; also recorded: can substitute for dATP | – | – |
| Nc1ccn([C@H]2C[C@H](O)[C@@H](COP(=O)(O)OP(=O)(O)OP(=O)(O)O)O2)c(=O)n1 [dCTP] | did not replace dATP | – | – |
